Laboratory results from publication PMC9886266, “New [1,2,4]triazolo[4,3-c]quinazolines as intercalative Topo II inhibitors: Design, synthesis, biological evaluation, and in silico studies” (PLOS ONE, 2023).

Key:
HCT-116 cells = test: Flow cytometry apoptosis analysis (Annexin V and PI double staining); assay type: cell-based, human; conditions: HCT-116, 2.44 μM, 48 h
Method: The Annexin V and PI double staining experiment was used to further investigate the apoptotic effect of compound 16 in HCT-116 cells. In this process, HCT-116 cells were treated with compound 16 at a concentration of 2.44 μM and incubated for 48 h. The apoptotic effect of compound 16 on HCT-116 cells was about nine times greater than that of untreated HCT-116 cells. In comparison to control cells (5.62%), compound 16 caused 48.82% programmed cell death (early apoptosis = 46.77% & late apoptosis = 2.05%) (Table 3 and Fig 4B).
Flow cytometry cell apoptosis analysis was used to investigate the apoptotic effect of compound 16 as follows.
[…] cells were treated with compound 16 (2.44 μM) for 48 h, collected by trypsin, centrifuged, washed two successive times with PBS, suspended in 500 μl binding buffer, and double stained with 5 μl Annexin V-FITC and 5 μl PI in the dark at room temperature for 15 min. The stained cells were measured using Epics XL-MCL™ Flow Cytometer and analyzed using Flowing software. […]
S2.6. Flow cytometry analysis for apoptosis
Flow cytometry cell apoptosis analysis was used to investigate the apoptotic effect of the synthesized compounds. […] cells were treated with compound 16 (2.44 µM) for 48 h, collected by trypsin, centrifuged, washed two successive times with PBS, suspended in 500 μl binding buffer, and double stained with 5 μl Annexin V-FITC and 5 μl PI in the dark at room temperature for 15 min. The stained cells were measured using Epics XL-MCL™ Flow Cytometer and analyzed using Flowing software.

HepG2 cell line = test: MTT anti-proliferative assay, HepG2; assay type: cell-based; conditions: Homo sapiens, 48 h, three independent experiments, read-out: In vitro cytotoxicity IC50, HepG2
Method: In vitro antiproliferative activities of the target molecules were assessed against two human cancer cell lines namely, hepatocellular carcinoma (HepG2) and colorectal carcinoma (HCT-116) using MTT assay.
The anti-proliferative activity of the synthesized compounds was assessed using MTT assay protocol. A panel of human cancer cell lines namely, colorectal carcinoma (HCT-116) and hepatocellular carcinoma (HepG2) was used in this test. Doxorubicin was used as a positive control. The cell lines were got from ATCC (American Type Culture Collection) via the Holding company for biological products and vaccines (VACSERA, Cairo, Egypt). The anti-proliferative activities of the tested compounds were determined quantitatively as follows:
At first, the cells were cultured into a medium of RPMI-1640 with 10% fetal bovine serum. Then, two different antibiotics were added at 37°C in a 5% CO2 incubator: penicillin (100 units/mL) and streptomycin (100 μg/mL). Next, we seeded the cells in a 96-well plate by a density of 1.0 x 10^4 cells / well at 37°C for 48 h under 5% CO2. The synthesized compounds with different concentrations were applied into the cell lines and incubated for 48 h. After 48 h, 20 μl of MTT solution (5mg/mL) was added and incubated for 4 h. Then, DMSO (100 μl) was added into each well to dissolve the formed purple formazan. After that, a colorimetric assay was measured and recorded at absorbance of 570 nm using a plate reader (EXL 800, USA). The relative cell viability in percentage was calculated as (A570 of treated samples/A570 of untreated sample) X 100.
S2: Biological evaluation
S2.1. In vitro cytotoxic activity
The anti-proliferative activity of the synthesized compounds was assessed using MTT assay protocol. A panel of human cancer cell lines namely, colorectal carcinoma (HCT-116) and hepatocellular carcinoma (HepG2) was used in this test. As we targeted the DNA and Topo […]
cell lines were got from ATCC (American Type Culture Collection) via the Holding company for biological products and vaccines (VACSERA, Cairo, Egypt). The anti -proliferative activities of the tested compounds were determined quantitatively as follows:
At first, the cells were cultured into a medium of RPMI-1640 with 10% fetal bovine serum.
Then, two different antibiotics were added at 37 ᵒC in a 5% CO2 incubator: penicillin (100 units/mL) and streptomycin (100 µg/mL). Next, we seeded the cells in a 96 -well plate by a density of 1.0 x 10^4 cells / well at 37 ᵒC for 48 h under 5% CO2. The synthesized compounds with different concentrations were applied into the cell lines and incubated for 48 h. After 48 h, 20 µl of MTT solution (5mg/mL) was added and incubated for 4 h. Then, DMSO (100 µl) was added into each well to dissolve the formed purple formazan. After that, a colorimetric assay was measured and recorded at absorbance of 570 nm using a plate reader (EXL 800, USA). The relative cell viability in percentage was calculated as (A570 of treated samples/A570 of untreated sample) X 100. […]

Vero cells = test: In vitro cytotoxicity against normal cell line; assay type: cell-based
Source text: Although Vero cell are not human cell, it was reported that Vero cells can be used as normal cells to validate the toxicity of the synthesized compounds [43].

With `CCCNc1nc2ccccc2c2nnc(C(F)(F)F)n12` [Compound 16, N-Propyl-3-(trifluoromethyl)-[1,2,4]triazolo[4,3-c]quinazolin-5-amine] the “Apoptosis Early (Right Bottom)” value (HCT-116 cells; mean ± SEM) was 46.77 ± 0.83 %, the “Apoptosis Late (Right Top)” value (HCT-116 cells; mean ± SEM) was 2.05 ± 0.92% and the “Necrosis (Left Top)” value (HCT-116 cells; mean ± SEM) was 0.90 ± 0.36. For the same compound, the “Viable (Left Bottom)” value (HCT-116 cells; mean ± SEM) was 50.28 ± 2.10, the “Programmed cell death (early + late apoptosis)” value (HCT-116 cells; control cells 5.62%) was 48.82% and the IC50 (HepG2 cell line) was 6.29 ± 0.3 µM. The IC50 (Vero cells; Chlorocebus sabaeus, Vero) was 63.4 µM, the “Selectivity: activity against HCT-116 compared with normal Vero cells” value (Vero cells; Vero vs HCT-116) was 26 fold and the “Selectivity: activity against HepG2 compared with normal Vero cells” value (Vero cells; Vero vs HepG2) was 10 fold. For the same compound, the “Toxicity to Vero cells less than that of sorafenib” value (Vero cells; compared with sorafenib) was “about 2.5 fold”.
